# Experimental data from PubChem BioAssay AID1259418 (Broad Institute, 2018).
# Where “and” joins values, the source holds several entries; their conditions need not be identical. Equal entries are not always repeated. Results filed as inconclusive are left out. Calls of active or inactive are those of the source.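 The calls were made as follows: active = fitted half-maximal concentration of signal decrease at or below twice the sample's top tested concentration; inconclusive = flat curve between -70 and -30 percent, or poor fit; inactive = flat within 30 percent, signal rise, or potency above limit.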
# Biological target: T. gondii ME49Luc in IFN-y HeLa, luciferase, 72 h
# Experiment: inhibitors of Toxoplasma growth in IFN-γ-primed HeLa – cell-based, ME49Luc, luciferase, 72 h, dose response (AID 1259418)
row,Compound,AC50
1,COc1ccccc1NC(=O)N1CCCCN2[C@H](C1)[C@@H](c1ccc(-c3cccc(C#N)c3)cc1)[C@@H]2CO,21.1 µM
2,CCOc1ccc(N(Cc2nc(-c3ccc(OC)cc3)oc2C)S(=O)(=O)c2cccs2)cc1,4.79 µM
3,O=C(C[C@@H]1CC[C@@H]2[C@H](COC[C@@H](O)CN2S(=O)(=O)c2ccccc2)O1)NCC1CCCCC1,20.8 µM
4,O=C(CC1N=C2c3ccccc3N=C(SCc3ccccc3Cl)N2C1=O)NCc1ccco1 (configuration not stated),> 39 µM (inactive)
5,Clc1ccc(-c2nc(N3CCC(c4ccccc4)C3)c3ccccc3n2)cc1 (configuration not stated),32.4 µM
6,O=C1c2c(O)ccc(O)c2C(=O)c2c(NCCNCCO)ccc(NCCNCCO)c21,0.128 µM
7,O=C(CC1N=C2c3ccccc3N=C(SCc3ccccc3F)N2C1=O)NCc1cccs1 (configuration not stated),18.4 µM
8,Clc1cccc(CN2CCC3(COCc4cnc(-c5ccccc5)nc43)C2)c1 (configuration not stated),18.2 µM and 10.4 µM
9,COc1cccc(NC(=O)N2CCc3nc(-c4ccc(C)cc4)sc3C2)c1,26.8 µM
10,Fc1ccc(CSc2nc(NCc3ccc(Cl)cc3)c3ccccc3n2)cc1,16 µM
11,O=C(NCCc1csc(-c2ccccc2)n1)C1CCN(S(=O)(=O)c2ccc(Cl)cc2)CC1,14.6 µM
12,COc1cccc(-c2nc3c(s2)CN(C(=O)Nc2ccc(Cl)cc2)CC3)c1,> 20 µM (inactive)
13,Cc1cccc(C(=O)Nc2c(C(=O)N3CCN(c4ccccn4)CC3)[nH]c3ccccc23)c1,> 39 µM (inactive)
14,COc1ccc(-c2nc(CSc3nc4c(c(=O)[nH]3)CN(Cc3ccc(F)cc3)CC4)c(C)o2)cc1,23.2 µM
15,O=S1(=O)c2ccccc2OCC2(CCN(Cc3ccc(F)cc3)CC2)CN1CC1CC1,26.6 µM
16,O=C(CC1N=C2c3ccccc3N=C(SCc3ccccc3Cl)N2C1=O)NCCc1ccccc1 (configuration not stated),15.9 µM
17,O=C(Cc1ccncc1)N1C[C@@H]2N[C@H](C1)C2c1ccc(/C=C/c2ccccc2)cc1 (some centres not stated),20.9 µM
18,COc1ccc(C#Cc2ccc([C@H]3[C@H]4CN(C(=O)NC(C)C)CC(=O)N4[C@H]3CO)cc2)cc1,18.5 µM
19,O=C(c1cnccn1)N1CC(=O)N2[C@H](CO)[C@H](c3ccc(-c4cccc(F)c4)cc3)[C@H]2C1,13.9 µM and 25 µM
20,CCc1ccc(S(=O)(=O)N2CCC3(CC2)NCCN=C3NCc2ccccc2)cc1,21.8 µM
21,CCCCCCCCCCCCCCCC[n+]1ccccc1,11.5 µM
22,CCc1nc(OCC(=O)Nc2ccc(F)c(Cl)c2)c2ccccc2n1,> 39 µM (inactive)
23,COc1ccc(-c2nc(CN(c3ccccc3)S(=O)(=O)c3ccccc3)c(C)o2)cc1,9.08 µM

row,Compound,AC50
1,CN(C)C(=O)c1ccc(-c2ccc(C3[C@@H]4CN(Cc5ccc6c(c5)OCO6)C[C@H]3N4)cc2)cc1 (some centres not stated),17.3 µM
2,COc1ccccc1NC(=O)N1C[C@@H]2N[C@H](C1)C2c1ccc(/C=C/c2ccccc2)cc1 (some centres not stated),6.84 µM and 4.45 µM and 4.22 µM
3,CN(C)C(=O)c1ccc(-c2ccc3c(c2)[C@@H]2[C@@H](CCN2C(=O)C2CCCC2)[C@@H](CO)N3C)cc1,21.1 µM
4,CC(C)C#Cc1ccc([C@H]2[C@@H](CO)N3C(=O)CN(C(=O)NC4CCCC4)C[C@H]23)cc1,> 39 µM (inactive)
5,Cc1cccc(-c2nc(Cn3nnc(-c4nc(-c5cccs5)no4)c3C)c(C)o2)c1,> 39 µM (inactive)
6,N#Cc1ccc(-c2ccc([C@@H]3[C@@H]4CN(C(=O)Nc5ccc6c(c5)OCO6)C[C@H]3N4)cc2)cc1,17.9 µM
7,Cc1nc(-c2cccc(-c3noc(C(=O)NCCCN4CCC(C)CC4)n3)c2)cs1,> 39 µM (inactive)
8,COc1cc(OC)cc(C(=O)Nc2ccc(-c3nc(-c4ccc(C)cc4C)co3)cc2)c1,29.7 µM
9,CCN1CCCC1CNC(=O)C1CCN(Cc2cc3ccccc3n2Cc2cccc(C)c2)CC1 (configuration not stated),25.5 µM
10,CC(C)CC#Cc1ccc([C@H]2[C@H]3CN(C(=O)Nc4cc(F)ccc4F)CC(=O)N3[C@H]2CO)cc1,> 39 µM (inactive) and 8.8 µM
11,CCc1ccc(S(=O)(=O)N2CCC3(CC2)NCCN=C3NCc2cccc(F)c2)cc1,16.3 µM
12,Cc1ccc(-n2ncc3c(NCc4cccc(Cl)c4)ncnc32)c(C)c1,22.3 µM
13,COc1cccc(-c2nc3c(s2)CN(C(=O)Nc2ccc(C)c(F)c2)CC3)c1,13.1 µM
14,O=C(CC1Nc2c3ccccc3nc(=S)n2C1=O)N1CCN(c2ccccc2F)CC1 (configuration not stated),29.7 µM
15,COc1cccc(-c2nc(C)c(-c3ccc(SCc4ccc(Cl)cc4)nn3)s2)c1,8.76 µM
16,COc1ccc(-c2nc(NC3CC3)c3ccccc3n2)cc1,14.9 µM
17,CN1c2ccc(C3=CCCCC3)cc2[C@@H]2[C@@H](CCN2C(=O)c2ccc3c(c2)OCO3)[C@@H]1CO,19.3 µM
18,CCOc1ccc(-c2nc(CN3CCN(C(=O)Nc4cccc(Cl)c4)CC3)c(C)o2)cc1,17.1 µM
19,Fc1ccc(Nc2nc(SCc3ccccc3Cl)nc3ccccc23)cc1F,11.3 µM
20,COc1cccc(CN2CCCCN3[C@@H](CO)[C@@H](c4ccc(-c5ccccc5OC)cc4)[C@@H]3C2)c1,16.4 µM and 13.4 µM
21,Cc1ccc(CN2CC3CN(Cc4cccc(F)c4)CC3C2)s1 (configuration not stated),9.23 µM
22,CCCCOc1ccc2c(=O)c(-c3cc(C(=O)OC)oc3C)c(C(F)(F)F)oc2c1C,4.38 µM and 7.67 µM
23,CCCNC(=O)N1C[C@@H]2N[C@H](C1)C2c1ccc(-c2ccc(OC)cc2)cc1 (some centres not stated),17.9 µM and 23.9 µM

row,Compound,AC50
1,Cc1ccc(NC(=O)N2CCN(Cc3nc(-c4cccc(Cl)c4)oc3C)CC2)cc1,> 39 µM (inactive)
2,CS(=O)(=O)N1CSC[C@@H]1C(=O)NCCc1csc(-c2ccccc2)n1,30.8 µM
3,OC[C@@H]1Nc2ccc(C#Cc3ccc(F)cc3)cc2[C@@H]2[C@H]1CCN2Cc1ccc2c(c1)OCO2,15.4 µM and 23.4 µM
4,Cc1ccc(-c2nc(CN3CCN(C(=O)Nc4ccc(C)c(F)c4)CC3)c(C)o2)cc1,8.58 µM
5,CC(C)N1c2ccc(F)cc2[C@@H]2CN(C(=O)c3ccco3)CC[C@H]21,12.8 µM
6,CCCCc1ccc(Nc2ncnc3c2cnn3-c2ccc(C)cc2C)cc1,8.05 µM
7,CCCNC(=O)N1C[C@@H]2N[C@H](C1)C2c1ccc(-c2cccc(F)c2)cc1 (some centres not stated),18.2 µM
8,CCOC(=O)c1ccc(NC(=O)N2CCN(Cc3nc(-c4ccc(C)cc4)oc3C)CC2)cc1,37.2 µM
9,COc1ccccc1-c1nc(CN(c2ccccc2OC)S(=O)(=O)c2ccccc2)c(C)o1,5.18 µM
10,CCCCNC(=O)CCC1N=C2c3ccccc3N=C(SCc3ccccc3Cl)N2C1=O (configuration not stated),24.1 µM
11,CCCc1ccc(S(=O)(=O)N2CCC[C@@H]2C(=O)NCCc2csc(-c3ccccc3)n2)cc1,3.78 µM and 16 µM
12,O=C(C[C@H]1CC[C@H]2[C@@H](COC[C@H](O)CN2S(=O)(=O)c2ccccc2)O1)NCC1CCCCC1,20.8 µM
13,COc1ccc(-c2nc(C)c(-c3ccc(SCc4cccc(C(F)(F)F)c4)nn3)s2)cc1,> 39 µM (inactive)
14,C[C@@H]1CN([C@@H](C)CO)C(=O)Cc2cc(NS(=O)(=O)c3ccc(Cl)cc3)ccc2O[C@@H]1CN(C)C(=O)Nc1ccc(C(F)(F)F)cc1,27.9 µM and 13.5 µM
15,CCc1nc(OCC(=O)Nc2ccc(C)c(F)c2)c2ccccc2n1,26.6 µM
16,CC/C(=C(\c1ccccc1)c1ccc(OCCN(C)C)cc1)c1ccccc1,35.2 µM
17,Cc1ccc(-c2nc(CN3CCN(C(=O)Nc4ccc(F)cc4)CC3)c(C)o2)cc1,33.3 µM
18,O=C(NC1CCCC1)N1CCCCN2[C@@H](CO)[C@H](c3ccc(-c4cccnc4)cc3)[C@@H]2C1,23.3 µM
19,Cc1cc(C(=O)Nc2ccc3c(c2)C(=O)N(C)[C@H]2CC[C@@H](CC(=O)NCc4ccc(-c5ccccc5)cc4)O[C@@H]2CO3)no1,20.8 µM
20,COc1ccc(-c2nc(NCCCN3CCN(c4ccccc4)CC3)c3ccccc3n2)cc1,29.8 µM
21,Cc1oc(-c2cccc(Cl)c2)nc1CN(c1ccccc1)S(=O)(=O)c1cccs1,10.4 µM
